Laboratory results from patent publication US20230131966A1, “FUNGICIDAL AMIDES” (FMC Corporation, priority 2020, published 2023).

Key:
Type in all cases: in vivo
[1] = system: Zymoseptoria tritici; experiment: Test C: wheat leaf blotch control on wheat seedlings; details: for Test C disease control rating / pest or weed control at 250 ppm: 250 ppm; for Test C disease control rating (100 = 100% disease control, 0 = no disease control): rate 250 ppm, relative to the controls
[2] = system: Phytophthora infestans; experiment: whole plant or invertebrate; details: tomato seedlings; for Test F disease control rating: 250 ppm; for Test F disease control rating (100 = 100% disease control, 0 = no disease control): rate 250 ppm, relative to the controls; for pest or weed control at 250 ppm: read-out: Test F disease control rating, 250 ppm
[3] = system: Botrytis cinerea; experiment: Test E: tomato Botrytis control on tomato seedlings; details: for Test E disease control rating / pest or weed control at 250 ppm: 250 ppm; for Test E disease control rating (100 = 100% disease control, 0 = no disease control): rate 250 ppm, relative to the controls
[4] = system: Erysiphe graminis f. sp. tritici; experiment: Test G: wheat powdery mildew control on wheat seedlings; details: for Test G disease control rating / pest or weed control at 250 ppm: 250 ppm; for Test G disease control rating (100 = 100% disease control, 0 = no disease control): rate 250 ppm, relative to the controls
[5] = system: Phakopsora pachyrhizi; experiment: Test A: Asian soybean rust control on soybean seedlings; details: for Test A disease control rating / pest or weed control at 250 ppm: 250 ppm; for Test A disease control rating (100 = 100% disease control, 0 = no disease control): rate 250 ppm, relative to the controls
[6] = system: Plasmopara viticola; experiment: Test D: grape downy mildew control on grape seedlings; details: for Test D disease control rating / pest or weed control at 250 ppm: 250 ppm; for Test D disease control rating (100 = 100% disease control, 0 = no disease control): rate 250 ppm, relative to the controls
[7] = system: Puccinia recondita f. sp. tritici; experiment: Test B: wheat leaf rust control on wheat seedlings; details: for Test B disease control rating / pest or weed control at 250 ppm: 250 ppm; for Test B disease control rating (100 = 100% disease control, 0 = no disease control): rate 250 ppm, relative to the controls
[8] = wheat seedlings, 100 = 100% disease control, 0 = no control
[9] = 100 = 100% disease control, 0 = no control
[10] = soybean seedlings, 100 = 100% disease control, 0 = no control
[11] = Zymoseptoria tritici, wheat seedlings, 100 = 100% disease control, 0 = no control, read-out: Test C disease control rating
[12] = Phytophthora infestans, in Solanum lycopersicum, 100 = 100% disease control, 0 = no control
[13] = Botrytis cinerea, 100 = 100% disease control, 0 = no control, read-out: Test E disease control rating
[14] = Blumeria graminis, 100 = 100% disease control, 0 = no control, read-out: Test G disease control rating
[15] = Phakopsora pachyrhizi, soybean seedlings, 100 = 100% disease control, 0 = no control, read-out: Test A disease control rating
[16] = Plasmopara viticola, 100 = 100% disease control, 0 = no control, read-out: Test D disease control rating
[17] = Puccinia recondita, wheat seedlings, 100 = 100% disease control, 0 = no control, read-out: Test B disease control rating

SMILES | Test C disease control rating [1, 8] | Test F disease control rating [2, 9] | Test E disease control rating [3, 9] | Test G disease control rating [4, 9] | Test A disease control rating [5, 10] | Test D disease control rating [6, 9] | Test B disease control rating [7, 8] | pest or weed control at 250 ppm [1, 11] | pest or weed control at 250 ppm [2, 12] | pest or weed control at 250 ppm [3, 13] | pest or weed control at 250 ppm [4, 14] | pest or weed control at 250 ppm [5, 15] | pest or weed control at 250 ppm [6, 16] | pest or weed control at 250 ppm [7, 17] | other results
COc1ccnc(C(=O)NC(C)C(=O)OC(C)c2ncc(C(F)(F)F)cc2Cl)c1O (mixture of isomers) [Compound 166] | 0% | 0% | 0% | 0% | 97% | 15% | 68% | – | – | – | – | – | – | – | –
COc1ccnc(C(=O)NC(C)C(=O)OC(C)C2CC(C)(C)CC(C)(C)C2)c1OC(C)=O (mixture of isomers) [Compound 171] | 80% | 53% | 0% | 0% | 100% | 49% | 100% | – | – | – | – | – | – | – | –
COc1ccnc(C(=O)NC(C)C(=O)OC(C)C2CCC(C)(C)CC2)c1O (mixture of isomers) [Compound 173] | 66% | 0% | 0% | 0% | 100% | 8% | 98% | – | – | – | – | – | – | – | –
COc1ccnc(C(=O)NC(C)C(=O)OC(C)C2CCC(C(C)(C)C)CC2)c1O (mixture of isomers) [Compound 176] | 57% | 0% | 0% | 0% | 99% | 14% | 89% | – | – | – | – | – | – | – | –
COc1ccnc(C(=O)NC(C)C(=O)OC(C)C2CCC(C(F)(F)F)CC2)c1OC(C)=O (mixture of isomers) [Compound 180] | 95% | 26% | 0% | 0% | 100% | 51% | 99% | – | – | – | – | – | – | – | –
COc1ccnc(C(=O)NC(C)C(=O)OC(C)C2CCC(C(C)(C)C)CC2)c1OC(C)=O (mixture of isomers) [Compound 181] | 100% | 26% | 0% | 0% | 100% | 80% | 100% | – | – | – | – | – | – | – | –
COc1ccnc(C(=O)NC(C)C(=O)OC(C)C2CCCc3ccccc32)c1OC(C)=O (mixture of isomers) [Compound 185] | 100% | 0% | 0% | 0% | 100% | 61% | 100% | – | – | – | – | – | – | – | –
COc1ccnc(C(=O)NC(C)C(=O)OC(C)C2Cc3ccccc3O2)c1OC(C)=O (mixture of isomers) [Compound 186] | 83% | 0% | 0% | 0% | 94% | 14% | 100% | – | – | – | – | – | – | – | –
COc1ccnc(C(=O)NC(C)C(=O)OC(C)C2Cc3ccccc3O2)c1O (mixture of isomers) [Compound 187] | – | – | – | – | – | – | – | – | – | – | – | – | – | – | Test C disease control rating (100 = 100% disease control, 0 = no disease control) [1]: 96%; Test F disease control rating (100 = 100% disease control, 0 = no disease control) [2]: 0%; Test E disease control rating (100 = 100% disease control, 0 = no disease control) [3]: 0%; Test G disease control rating (100 = 100% disease control, 0 = no disease control) [4]: 0%; Test A disease control rating (100 = 100% disease control, 0 = no disease control) [5]: 97%; Test D disease control rating (100 = 100% disease control, 0 = no disease control) [6]: 6%; Test B disease control rating (100 = 100% disease control, 0 = no disease control) [7]: 100%
COc1ccnc(C(=O)NC(C)C(=O)OC(C)C2COc3ccccc32)c1OC(C)=O (mixture of isomers) [Compound 191] | – | – | – | – | – | – | – | – | – | – | – | – | – | – | Test C disease control rating (100 = 100% disease control, 0 = no disease control) [1]: 89%; Test F disease control rating (100 = 100% disease control, 0 = no disease control) [2]: 0%; Test E disease control rating (100 = 100% disease control, 0 = no disease control) [3]: 0%; Test G disease control rating (100 = 100% disease control, 0 = no disease control) [4]: 21%; Test A disease control rating (100 = 100% disease control, 0 = no disease control) [5]: 100%; Test D disease control rating (100 = 100% disease control, 0 = no disease control) [6]: 26%; Test B disease control rating (100 = 100% disease control, 0 = no disease control) [7]: 96%
COc1ccnc(C(=O)N(C)C(C)C(=O)OC(C)c2ccc(C3CCCCC3)cc2)c1O (mixture of isomers) [Compound 193] | – | – | – | – | – | – | – | – | – | – | – | – | – | – | Test C disease control rating (100 = 100% disease control, 0 = no disease control) [1]: 3%; Test F disease control rating (100 = 100% disease control, 0 = no disease control) [2]: 0%; Test E disease control rating (100 = 100% disease control, 0 = no disease control) [3]: 0%; Test G disease control rating (100 = 100% disease control, 0 = no disease control) [4]: 0%; Test A disease control rating (100 = 100% disease control, 0 = no disease control) [5]: 87%; Test D disease control rating (100 = 100% disease control, 0 = no disease control) [6]: 74%; Test B disease control rating (100 = 100% disease control, 0 = no disease control) [7]: 74%
CC(NC(=O)c1cccc(N)c1O)C(=O)OC(C)c1ccccc1Cc1ccccc1 (racemic) [Compound 9] | – | – | – | – | – | – | – | 53% | 76% | 0% | 0% | 95% | 97% | 91% | –
COc1ccnc(C(=O)NC(C)C(=O)OC(C)c2ccncc2)c1O (racemic) [Compound 14] | – | – | – | – | – | – | – | 12% | 0% | 0% | 0% | 0% | 48% | 0% | –
COc1ccnc(C(=O)N[C@@H](C)C(=O)OC(C)C2CCCCC2)c1OC(C)=O (mixture of isomers) [Compound 29, N-[[3-(acetyloxy)-4-methoxy-2-pyridinyl]carbonyl]-L-alanine 1-cyclohexylethyl ester] | – | – | – | – | – | – | – | 95% | 33% | 0% | 0% | 100% | 17% | 99% | –
COc1ccnc(C(=O)N[C@@H](C)C(=O)OC(C)C2CCCCC2)c1O (mixture of isomers) [Compound 30, N-[(3-hydroxy-4-methoxy-2-pyridinyl)carbonyl]-L-alanine 1-cyclohexylethyl ester] | – | – | – | – | – | – | – | 97% | 0% | 0% | 0% | 100% | 1% | 100% | –
COc1ccnc(C(=O)N[C@@H](C)C(=O)OC(C)c2ccc(C3CCCCC3)cc2)c1OC(C)=O (mixture of isomers) [Compound 31, N-[[3-(acetyloxy)-4-methoxy-2-pyridinyl]carbonyl]-L-alanine 1-(4-cyclohexylphenyl)ethyl ester] | – | – | – | – | – | – | – | 87% | 0% | 0% | 73% | 100% | 1% | 100% | –
COc1ccnc(C(=O)N[C@@H](C)C(=O)OC(C)c2ccc(C3CCCCC3)cc2)c1O (mixture of isomers) [Compound 32, N-[(3-hydroxy-4-methoxy-2-pyridinyl)carbonyl]-L-alanine 1-(4-cyclohexylphenyl)ethyl ester] | – | – | – | – | – | – | – | 86% | 0% | 0% | 0% | 100% | 18% | 99% | –
COc1ccnc(C(=O)N[C@@H](C)C(=O)OC(C(C)C)C2CCCCC2)c1OC(C)=O (mixture of isomers) [Compound 62, N-[[3-(acetyloxy)-4-methoxy-2-pyridinyl]carbonyl]-L-alanine 1-cyclohexyl-2-methylpropyl ester] | – | – | – | – | – | – | – | – | – | – | – | – | – | – | pest or weed control at 50 ppm ([1]; Zymoseptoria tritici, 50 ppm, wheat seedlings, 100 = 100% disease control, 0 = no control, read-out: Test C disease control rating): 14%; pest or weed control at 50 ppm ([2]; Phytophthora infestans, in Solanum lycopersicum, read-out: Test F disease control rating, 50 ppm, 100 = 100% disease control, 0 = no control): 0%; pest or weed control at 50 ppm ([3]; Botrytis cinerea, 50 ppm, 100 = 100% disease control, 0 = no control, read-out: Test E disease control rating): 0%; pest or weed control at 50 ppm ([4]; Blumeria graminis, 50 ppm, 100 = 100% disease control, 0 = no control, read-out: Test G disease control rating): 0%; pest or weed control at 50 ppm ([5]; Phakopsora pachyrhizi, 50 ppm, soybean seedlings, 100 = 100% disease control, 0 = no control, read-out: Test A disease control rating): 100%; pest or weed control at 50 ppm ([6]; Plasmopara viticola, 50 ppm, 100 = 100% disease control, 0 = no control, read-out: Test D disease control rating): 74%; pest or weed control at 50 ppm ([7]; Puccinia recondita, 50 ppm, wheat seedlings, 100 = 100% disease control, 0 = no control, read-out: Test B disease control rating): 93%
